Earlier results in patent US8492371B2, “Compounds as cannabinoid receptor ligands” (priority 2009, dated 2013).

Conditions: low doses, apolipoprotein E knockout mice; inhibited by SR144528; cited from earlier work

## (−)-Δ^9-Tetrahydrocannabinol [THC]
  progression of atherosclerotic lesions: slowed the progression of atherosclerotic lesions
